Test results taken from ChEMBL document CHEMBL3853354, “Structure-activity relationships of proline modifications around the tetracyclic-indole class of NS5A inhibitors” (Bioorg Med Chem Lett, 2016).

Tests used:
[1] = test system: Hepatitis C virus subtype 1a; test: Inhibition of NS5A in HCV genotype 1a assessed as reduction in replicon RNA level after 3 days by cell based RT-PCR method
[2] = Half life in rat at 2 mg/kg, iv; assay type: ADME, organism-based; conditions: in vivo
[3] = test system: Hepatitis C virus subtype 1a; test: Selectivity ratio of EC90 for NS5A L31V mutant in HCV genotype 1a to EC90 for NS5A in HCV genotype 1a
[4] = Selectivity ratio of EC90 for NS5A in HCV genotype 2b to EC90 for NS5A in HCV genotype 1a
[5] = Oral bioavailability in rat at 10 mg/kg; assay type: ADME, organism-based; conditions: in vivo
[6] = test system: Hepatitis C virus subtype 1a; test: Selectivity ratio of EC90 for NS5A Y93H mutant in HCV genotype 1a to EC90 for NS5A in HCV genotype 1a
[7] = test system: T1, Nonstructural protein 5A (Hepatitis C virus), Q5L478 [Y93H]; test: Inhibition of NS5A Y93H mutant in HCV genotype 1a assessed as reduction in replicon RNA level after 3 days by cell based RT-PCR method; conditions: Hepatitis C virus subtype 1a
T1 sequence (whole entry): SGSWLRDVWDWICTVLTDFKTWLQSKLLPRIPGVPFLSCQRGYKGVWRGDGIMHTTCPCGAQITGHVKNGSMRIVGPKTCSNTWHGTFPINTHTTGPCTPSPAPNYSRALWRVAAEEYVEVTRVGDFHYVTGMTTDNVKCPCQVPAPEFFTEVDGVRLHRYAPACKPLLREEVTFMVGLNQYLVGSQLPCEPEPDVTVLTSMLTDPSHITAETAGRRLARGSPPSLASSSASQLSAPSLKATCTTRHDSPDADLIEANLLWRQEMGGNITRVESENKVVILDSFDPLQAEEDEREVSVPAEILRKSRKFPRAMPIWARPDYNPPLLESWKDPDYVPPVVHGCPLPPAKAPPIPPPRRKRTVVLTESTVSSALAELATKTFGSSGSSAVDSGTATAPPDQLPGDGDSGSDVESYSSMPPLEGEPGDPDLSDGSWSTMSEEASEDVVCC

[8] = test system: Hepatitis C virus subtype 2b; test: Inhibition of NS5A in HCV genotype 2b assessed as reduction in replicon RNA level after 3 days by cell based RT-PCR method
[9] = Clearance in rat at 2 mg/kg, iv; assay type: ADME, organism-based; conditions: in vivo
[10] = Cmax in rat at 10 mg/kg, po; assay type: ADME, organism-based; design: dose 10 mg/kg, route oral; conditions: in vivo
[11] = test system: Nonstructural protein 5A (Hepatitis C virus), Q5L478 [UNDEFINED MUTATION]; test: Inhibition of NS5A L31V mutant in HCV genotype 1a assessed as reduction in replicon RNA level after 3 days by cell based RT-PCR method; conditions: Hepatitis C virus subtype 1a
[12] = AUC in rat at 10 mg/kg, po; assay type: ADME, organism-based; conditions: in vivo
[13] = test system: Hepatitis C virus subtype 3a; test: Inhibition of NS5A in HCV genotype 3a assessed as reduction in replicon RNA level after 3 days by cell based RT-PCR method

SMILES	EC90 [1] [nM]	half-life [2] [h]	Selectivity ratio [3]	Selectivity ratio [4]	bioavailability [5] [%]	Selectivity ratio [6]	EC90 [7] [nM]	EC90 [8] [nM]	clearance [9] [mL/min/kg]	Cmax [10] [nM]	EC90 [11] [nM]	AUC [12] [µM·h]	EC90 [13] [nM]
COC(=O)N[C@H](C(=O)N1CCC[C@H]1c1ncc(-c2cc(F)c3c(c2)OC(c2ccc4c(c2)OCCC4)n2c-3cc3cc(-c4cnc([C@@H]5C[C@H]6C[C@H]6N5C(=O)[C@@H](NC(=O)OC)C(C)C)[nH]4)ccc32)[nH]1)C(C)C (stereo partly drawn)	0.004	4.6	2	95	4	30	0.12	0.38	11.4	73	0.007	0.63	
COC(=O)N[C@H](C(=O)N1CCC[C@H]1c1ncc(-c2cc(F)c3c(c2)OC(c2ccc4c(c2)OCCC4)n2c-3cc3cc(-c4cnc([C@@H]5CCCN5C(=O)[C@@H](NC(=O)OC)C(C)C)[nH]4)ccc32)[nH]1)C(C)C (stereo partly drawn)	0.003		1	103		160	0.48	0.31			0.0025		
COC(=O)N[C@H](C(=O)N1CCC[C@H]1c1ncc(-c2ccc3c(c2)cc2n3C(c3ccccc3)Oc3cc(-c4cnc([C@@H]5C[C@@H](F)CN5C(=O)[C@@H](NC(=O)OC)C(C)C)[nH]4)cc(F)c3-2)[nH]1)C(C)C (stereo partly drawn)	0.006		362	10600		233	1.4	63.6			2.17		
COC(=O)N[C@H](C(=O)N1CCC[C@H]1c1ncc(-c2ccc3c(c2)cc2n3C(c3cccc(OC)c3)Oc3cc(-c4cnc([C@@H]5C[C@@H](F)CN5C(=O)[C@@H](NC(=O)OC)C(C)C)[nH]4)ccc3-2)[nH]1)C(C)C (stereo partly drawn)	< 0.02		> 41	> 3040		> 990	19.8	60.8			0.81		
COC(=O)N[C@H](C(=O)N1CCC[C@H]1c1ncc(-c2cc(F)c3c(c2)OC(c2cccc(OC)c2)n2c-3cc3cc(-c4cnc([C@@H]5CCCN5C(=O)[C@@H](NC(=O)OC)C(C)C)[nH]4)ccc32)[nH]1)C(C)C (stereo partly drawn)	0.01		20	570		230		5.72					0.07
COC(=O)N[C@H](C(=O)N1CCC[C@H]1c1ncc(-c2cc(F)c3c(c2)OC(c2ccccc2)n2c-3cc3cc(-c4cnc([C@@H]5C[C@H]6C[C@H]6N5C(=O)[C@@H](NC(=O)OC)C(C)C)[nH]4)ccc32)[nH]1)C(C)C (stereo partly drawn)	0.016		26	1000		200	3.17	16.3			0.42		
COC(=O)N[C@H](C(=O)N1CCC[C@H]1c1ncc(-c2ccc3c(c2)OC(c2cccc(OC)c2)n2c-3cc3cc(-c4cnc([C@@H]5C[C@H]6C[C@H]6N5C(=O)[C@@H](NC(=O)OC)C(C)C)[nH]4)ccc32)[nH]1)C(C)C (stereo partly drawn)	0.013	4.7	10	360	13	500	6.45	4.66	6	630	0.13	3.64	
